Source: ChEMBL document CHEMBL1909559, “Design, synthesis, and biological evaluation of benzodiazepine-based SUMO-specific protease 1 inhibitors” (Bioorg Med Chem Lett, 2011)

Experiments:
PC-3 = test: Cytotoxicity against human PC3 cells
[1] = target: T1, Sentrin-specific protease 1 (Homo sapiens, UniProt Q9P0U3); test: Inhibition of histidine-tagged human SENP1 catalytic domain preincubated for 10 mins by SUMO-CHOP-PLA2 reporter fluorescence assay
T1 sequence (Q9P0U3 whole entry): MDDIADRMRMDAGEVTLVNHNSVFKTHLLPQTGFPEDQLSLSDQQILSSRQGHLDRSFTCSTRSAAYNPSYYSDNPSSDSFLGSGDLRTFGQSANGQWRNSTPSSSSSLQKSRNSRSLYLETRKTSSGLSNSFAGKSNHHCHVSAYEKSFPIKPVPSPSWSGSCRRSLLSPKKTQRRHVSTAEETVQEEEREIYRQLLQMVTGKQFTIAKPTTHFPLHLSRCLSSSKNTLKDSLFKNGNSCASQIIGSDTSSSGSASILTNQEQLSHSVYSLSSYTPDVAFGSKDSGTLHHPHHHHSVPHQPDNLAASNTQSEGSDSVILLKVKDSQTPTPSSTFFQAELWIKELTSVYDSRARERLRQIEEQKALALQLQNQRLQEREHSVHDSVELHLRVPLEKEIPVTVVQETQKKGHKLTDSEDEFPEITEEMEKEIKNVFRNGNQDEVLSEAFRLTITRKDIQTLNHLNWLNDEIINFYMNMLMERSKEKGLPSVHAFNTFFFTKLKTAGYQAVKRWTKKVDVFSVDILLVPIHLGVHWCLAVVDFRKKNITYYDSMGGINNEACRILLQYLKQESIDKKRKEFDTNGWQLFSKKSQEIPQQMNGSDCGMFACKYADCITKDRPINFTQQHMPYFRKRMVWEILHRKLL

| Compound | IC50 (PC-3) | IC50 [1] |
| --- | --- | --- |
| O=CCN1C(=O)C(NC(=O)c2ccc(NC(=O)OCc3ccccc3)cc2)N=C(c2ccccc2)c2ccccc21 (stereo not drawn) | 13 µM | – |
| O=C(NC1N=C(c2ccccc2)c2ccccc2N(CCO)C1=O)OCc1ccccc1 (stereo not drawn) | – | > 100 µM |
| O=CCN1C(=O)C(NC(=O)c2cccc(NC(=O)OCc3ccccc3)c2)N=C(c2ccccc2)c2ccccc21 (stereo not drawn) | 35.7 µM | – |
| CC(C)(C)OC(=O)Nc1ccc(C(=O)NC2N=C(c3ccccc3)c3ccccc3N(CC=O)C2=O)cc1 (stereo not drawn) | – | > 100 µM |
| O=CCN1C(=O)C(NC(=O)OCc2ccccc2)N=Cc2ccccc21 (stereo not drawn) | – | > 100 µM |
| O=CCCN1C(=O)C(NC(=O)OCc2ccccc2)N=C(c2ccccc2)c2ccccc21 (stereo not drawn) | – | > 100 µM |
| CC(C)(C)OC(=O)Nc1cccc(C(=O)NC2N=C(c3ccccc3)c3ccccc3N(CC=O)C2=O)c1 (stereo not drawn) | – | > 100 µM |
| CC(=O)Nc1cccc(C(=O)NC2N=C(c3ccccc3)c3ccccc3N(CC=O)C2=O)c1 (stereo not drawn) | – | > 100 µM |
